In patent US20100298141A1, “SUBSTITUTED PYRIDINE N-OXIDE HERBICIDES” (E. I. DU PONT DE NEMOURS AND COMPANY, priority 2007, published 2010):

Experiments:
sugarcane = assay: Test F pre-/postemergence test; type: in vivo, Saccharum officinarum; details: for Sugarcane plant response rating: postemergence
Excerpt: Seeds of plant species selected from bermudagrass (Cynodon dactylon), Surinam grass (Brachiaria decumbens), large crabgrass (Digitaria sanguinalis), green foxtail (Setaria viridis), goosegrass (Eleusine indica), johnsongrass (Sorghum halepense), kochia (Kochia scoparia), pitted morningglory (Ipomoea lacunosa), purple nutsedge (Cyperus rotundus), common ragweed (Ambrosia elation), mustard (Brassica nigra), guineagrass (Panicum maximum), […] (Paspalum dilatatum), barnyardgrass (Echinochloa crus-galli), southern sandbur (Cenchrus echinatus), common sowthistle (Sonchus oleraceous), prickly […] spinosa), Italian ryegrass (Lolium multiflorum), common purslane (Portulaca oleracea), broadleaf signalgrass (Brachiaria platyphylla), common groundsel (Senecio vulgaris), common chickweed (Stellaria media), Virginia dayflower (Commelina virginica), annual bluegrass (Poa annua), naked crabgrass (Digitaria nuda), […] cochinchinensis), quackgrass (Elytrigia repens), Canada horseweed (Conyza canadensis), field bindweed (Convolvulus arvensis), […] (Bidens bipinnata), common mallow (Malva sylvestris), Russian thistle (Salsola kali), and sugarcane (Saccharum officinarum) were planted and treated preemergence with test chemicals formulated in a non-phytotoxic solvent mixture which included a surfactant. At a different time, sugarcane was treated with postemergence applications of some of the test chemicals formulated in the same manner. Plants were approximately 3- to 4-leaf stage for the postemergence treatments. Treated plants and controls were maintained in a greenhouse for 14 to 21 days, after which time all species were compared to controls and visually evaluated. […] A dash (-) response means no test result.

Redstem = assay: Test C flooded paddy test; type: in vivo; details: Flood
Excerpt: (§1) At time of treatment, test pots were flooded to 3 cm above the soil surface, treated by application of test compounds directly to the paddy water, and then maintained at that water depth for the duration of the test. Treated plants and controls were maintained in a greenhouse for 13 to 15 days, after which time all species were compared to controls and visually evaluated. […] A dash (-) response means no test result.

Ricefield Bulrush = assay: Test C flooded paddy test; type: in vivo; details: Flood
Excerpt: as §1

[1] = test system: water seeded rice seedlings; assay: Test E flooded paddy test; type: in vivo, Oryza sativa cv. ‘Japonica -M202’; details: Flood, after 21 days, scale 0 to 100
Excerpt: (§2) Three plastic pots (ca. 16-cm diameter) per rate were partially filled with sterilized Tama silt loam soil comprising a 35:50:15 ratio of sand, silt and clay and 2.6% organic matter. Separate plantings for each of the three pots were as follows. Seeds from the U.S. of ducksalad (Heteranthera limosa), smallflower umbrella sedge (Cyperus difformis) and purple […] coccinea), were planted into one 16-cm pot for each rate. […] Seeds from the U.S. of barnyardgrass (Echinochloa crus-galli), late watergrass (Echinochloa oryzicola), early watergrass (Echinochloa oryzoides) and junglerice (Echinochloa colona) were planted into one 16-cm pot for each rate. Plantings were sequential so that crop and weed species were at the 2.0 to 2.5-leaf stage at time of treatment. Potted plants were grown in a greenhouse with day/night temperature settings of 30/27° C., and supplemental balanced lighting was provided to maintain a 16-hour photoperiod. Test pots were maintained in the greenhouse until test completion. At time of treatment, test pots were flooded to 3 cm above the soil surface, treated by application of test compounds directly to the paddy water, and then maintained at that water depth for the duration of the test. Effects of treatments on rice and weeds were visually evaluated by comparison to untreated controls after 21 days. […] A dash (-) response means no test result.

early watergrass = assay: Test E flooded paddy test; type: in vivo, Echinochloa oryzoides; details: Flood, after 21 days, scale 0 to 100
Excerpt: as §2

[2] = test system: smallflower umbrella sedge; assay: Test E flooded paddy test; type: in vivo, Cyperus difformis; details: Flood, after 21 days, scale 0 to 100
Excerpt: as §2

bearded sprangletop = assay: Test E flooded paddy test; type: in vivo, Leptochloa fascicularis; details: Flood, after 21 days, scale 0 to 100
Excerpt: as §2

[3] = 250 g ai/ha, scale 0 to 100 (0 no effect, 100 complete control)
[4] = 31 g ai/ha, scale 0 to 100 (0 no effect, 100 complete control)
[5] = 62 g ai/ha, scale 0 to 100, 0 no effect, 100 complete control, 13 to 15 days
[6] = 125 g ai/ha, scale 0 to 100, 0 no effect, 100 complete control, 13 to 15 days

CC(c1c(C(F)(F)F)nn(C)c1OC(F)F)S(=O)(=O)c1cccc[n+]1[O-] (stereo not shown) [Compound 5]
Sugarcane plant response rating (sugarcane; 62 g ai/ha, scale 0 to 100): 0
Sugarcane plant response rating (sugarcane; [3]): 7
Plant response rating, Sugarcane (sugarcane; 250 g ai/ha, preemergence, scale 0 to 100): 7
Plant response rating, Redstem (Redstem; [4]): 40
Plant response rating, Redstem (Redstem; [5]): 80
Plant response rating, Redstem (Redstem; [6]): 80
Plant response rating, Redstem (Redstem; [3]): 80
Plant response rating, Ricefield Bulrush (Ricefield Bulrush; [4]): 0
Plant response rating, Ricefield Bulrush (Ricefield Bulrush; [5]): 45
Plant response rating, Ricefield Bulrush (Ricefield Bulrush; [6]): 80
Plant response rating, Ricefield Bulrush (Ricefield Bulrush; [3]): 85

Cn1nc(C(F)(F)F)c(C[S+]([O-])c2cc(Br)cc[n+]2[O-])c1Cl (racemic) [Compound 35]
Plant response rating, Rice, Waterseeded ([1]; 16 g ai/ha): 0
Plant response rating, Rice, Waterseeded ([1]; 32 g ai/ha): 0
Plant response rating, Rice, Waterseeded ([1]; 64 g ai/ha): 0
Plant response rating, Rice, Waterseeded ([1]; 125 g ai/ha): 20
Plant response rating, Rice, Waterseeded ([1]; 250 g ai/ha): 30
Plant response rating, Watergrass, Early (early watergrass; 16 g ai/ha): 0
Plant response rating, Watergrass, Early (early watergrass; 32 g ai/ha): 0
Plant response rating, Watergrass, Early (early watergrass; 64 g ai/ha): 0
Plant response rating, Watergrass, Early (early watergrass; 125 g ai/ha): 20
Plant response rating, Watergrass, Early (early watergrass; 250 g ai/ha): 40
Plant response rating, Sedge, Umbrella ([2]; 16 g ai/ha): 0
Plant response rating, Sedge, Umbrella ([2]; 32 g ai/ha): 45
Plant response rating, Sedge, Umbrella ([2]; 64 g ai/ha): 85
Plant response rating, Sedge, Umbrella ([2]; 125 g ai/ha): 85
Plant response rating, Sedge, Umbrella ([2]; 250 g ai/ha): 100
Plant response rating, Sprangletop, Brdd. (bearded sprangletop; 16 g ai/ha): 0
Plant response rating, Sprangletop, Brdd. (bearded sprangletop; 32 g ai/ha): 90
Plant response rating, Sprangletop, Brdd. (bearded sprangletop; 64 g ai/ha): 90
Plant response rating, Sprangletop, Brdd. (bearded sprangletop; 125 g ai/ha): 90
Plant response rating, Sprangletop, Brdd. (bearded sprangletop; 250 g ai/ha): 90
